Measurements: ChEMBL document CHEMBL3102829, “Resveratrol oligomers inhibit biofilm formation of Escherichia coli O157:H7 and Pseudomonas aeruginosa” (J Nat Prod, 2014)
Active and inactive are the calls of the source. The rule behind the calls is not given here.

How the values were obtained:
Pseudomonas aeruginosa [1] = experiment: Antibiofilm activity against Pseudomonas aeruginosa PA14 after 24 hrs by spectrophotometry; format: functional, organism-based
Pseudomonas aeruginosa [2] = experiment: Antibiofilm activity against Pseudomonas aeruginosa PA14 after 24 hrs by GFP-based confocal laser microscopy; format: functional, organism-based
Escherichia coli [3] = experiment: Antibiofilm activity against Escherichia coli O157:H7 assessed as induction of qseB gene expression at 20 ug/ml after 5 hrs by qRT-PCR analysis; format: functional, organism-based
Escherichia coli [4] = experiment: Antibiofilm activity against Escherichia coli O157:H7 assessed as induction of motB gene expression at 20 ug/ml after 5 hrs by qRT-PCR analysis; format: functional, organism-based
Escherichia coli [5] = experiment: Antibiofilm activity against Escherichia coli O157:H7 assessed as induction of flhD gene expression at 20 ug/ml after 5 hrs by qRT-PCR analysis; format: functional, organism-based
Escherichia coli [6] = experiment: Antibiofilm activity against Escherichia coli O157:H7 assessed as induction of fliA gene expression at 20 ug/ml after 5 hrs by qRT-PCR analysis; format: functional, organism-based
Escherichia coli [7] = experiment: Antibiofilm activity against Escherichia coli O157:H7 after 24 hrs by GFP-based confocal laser microscopy; format: functional, organism-based
Escherichia coli [8] = experiment: Antibiofilm activity against Escherichia coli O157:H7 after 24 hrs by spectrophotometry; format: functional, organism-based
Escherichia coli [9] = experiment: Reduction in fimbriae production in Escherichia coli O157:H7 biofilm grown on nylon filter at 20 ug/ml after 24 hrs by scanning electron microscopy; format: functional, organism-based
Escherichia coli [10] = experiment: Antibiofilm activity against Escherichia coli O157:H7 assessed as effect on rrsG expression at 20 ug/ml after 5 hrs by qRT-PCR analysis; format: functional, organism-based
Escherichia coli [11] = experiment: Antibiofilm activity against Escherichia coli O157:H7 assessed as repression of csgG expression at 20 ug/ml after 5 hrs by qRT-PCR analysis; format: functional, organism-based
Escherichia coli [12] = experiment: Antibiofilm activity against Escherichia coli O157:H7 assessed as repression of csgF expression at 20 ug/ml after 5 hrs by qRT-PCR analysis; format: functional, organism-based
Escherichia coli [13] = experiment: Antibiofilm activity against Escherichia coli O157:H7 assessed as repression of csgD expression at 20 ug/ml after 5 hrs by qRT-PCR analysis; format: functional, organism-based
Escherichia coli [14] = experiment: Antibiofilm activity against Escherichia coli O157:H7 assessed as repression of csgC expression at 20 ug/ml after 5 hrs by qRT-PCR analysis; format: functional, organism-based
Escherichia coli [15] = experiment: Antibiofilm activity against Escherichia coli O157:H7 assessed as repression of csgB expression at 20 ug/ml after 5 hrs by qRT-PCR analysis; format: functional, organism-based
Escherichia coli [16] = experiment: Antibiofilm activity against Escherichia coli O157:H7 assessed as repression of csgA expression at 20 ug/ml after 5 hrs by qRT-PCR analysis; format: functional, organism-based
Escherichia coli [17] = experiment: Antimicrobial activity against Escherichia coli O157:H7 by spectrophotometry; format: organism-based; conditions: in vivo
Escherichia coli [18] = experiment: Antimicrobial activity against Escherichia coli O157:H7 assessed as growth inhibition up to 50 ug/ml by spectrophotometry; format: organism-based; conditions: in vivo
Pseudomonas aeruginosa [19] = experiment: Antibiofilm activity against Pseudomonas aeruginosa PA14 assessed as growth inhibition at 50 ug/ml by spectrophotometry; format: functional, organism-based
Escherichia coli [20] = experiment: Antibiofilm activity against Escherichia coli O157:H7 at 5 ug/ml after 24 hrs by spectrophotometry; format: functional; conditions: O157:H7, 24 h

SMILES | inhibition (Pseudomonas aeruginosa [1]) | inhibition (Pseudomonas aeruginosa [2]) | Activity (Escherichia coli [3]) | Activity (Escherichia coli [4]) | Activity (Escherichia coli [5]) | Activity (Escherichia coli [6]) | inhibition (Escherichia coli [7]) | inhibition (Escherichia coli [8]) | Activity (Escherichia coli [9]) | Activity (Escherichia coli [10]) | Activity (Escherichia coli [11]) | Activity (Escherichia coli [12]) | Activity (Escherichia coli [13]) | Activity (Escherichia coli [14]) | Activity (Escherichia coli [15]) | Activity (Escherichia coli [16]) | growth inhibition (GI) (Escherichia coli [17]) | Activity (Escherichia coli [18]) | inhibition (Pseudomonas aeruginosa [19]) | inhibition at 5 µg/mL (Escherichia coli [20]) [%]
Oc1ccc([C@@H]2c3c(O)cc(O)cc3[C@@H]3c4c(cc(O)c5c4[C@@H]2[C@@H](c2ccc(O)cc2)[C@@H]5c2cc(O)cc(O)c2)O[C@@H]3c2ccc(O)cc2)cc1 (relative stereo) | Dose-dependent effect | Active | inactive | inactive | inactive | inactive | Dose-dependent effect | Dose-dependent effect |  |  |  |  |  |  |  |  |  |  |  | 
Oc1ccc(/C=C/c2cc(O)cc3c2[C@@H](c2cc(O)cc(O)c2)[C@H](c2ccc(O)cc2)O3)cc1 [EPSILON-VINIFERIN] |  |  | inactive | inactive | inactive | inactive |  | Dose-dependent effect | Active | inactive | Active | Active | Active | Active | Active | Active | Dose-dependent effect |  |  | 
Oc1ccc(/C=C/c2cc(O)cc(O)c2)cc1 [RESVERATROL] | Active | Active |  |  |  |  |  | Dose-dependent effect | Active | inactive | Active | Active | Active | Active | Active | Active | Dose-dependent effect |  |  | 
Oc1ccc([C@H]2c3c(O)cc(O)cc3[C@@H]3c4c(cc(O)c5c4[C@@H]2[C@@H](c2ccc(O)cc2)[C@@H]5c2cc(O)cc(O)c2)O[C@@H]3c2ccc(O)cc2)cc1 (relative stereo) | Dose-dependent effect | Active | inactive | inactive | inactive | inactive | Dose-dependent effect | Dose-dependent effect |  | inactive | Active | Active | Active | Active | Active | Active |  |  |  | 
Oc1ccc([C@H]2c3c(O)cc(O)cc3[C@H]3c4c(cc(O)cc4[C@@H]2c2cc(/C=C/c4cc(O)cc5c4[C@H](c4cc(O)cc(O)c4)[C@@H](c4ccc(O)cc4)O5)ccc2O)O[C@@H]3c2ccc(O)cc2)cc1 [VITISIN A] | Dose-dependent effect | Active | inactive | inactive | inactive | inactive |  | inactive |  |  |  |  |  |  |  |  |  | Non-toxic |  | 
Oc1ccc([C@H]2Oc3cc(O)cc(/C=C/c4ccc5c(c4)[C@@H](c4cc(O)cc6c4[C@H](c4cc(O)cc(O)c4)[C@@H](c4ccc(O)cc4)O6)[C@H](c4ccc(O)cc4)O5)c3[C@@H]2c2cc(O)cc(O)c2)cc1 [VITISIN B] | Dose-dependent effect | Active | Active | Active | Active | Active | Dose-dependent effect | Dose-dependent effect | Active | inactive | Active | Active | Active | Active | Active | Active |  | Non-toxic | inactive | > 90
